Experimental data published in patent publication US20210386783A1, “USE OF GLUCOSYLCERAMIDE SYNTHASE GENE-DEFICIENT T CELL AND THERAPEUTIC UTILIZATION THEREOF” (SCHOOL CORPORATION, AZABU VETERINARY MEDICINE EDUCATIONAL …, priority 2018, published 2021).

What was measured:
UGCG = biological target: T1, UGCG (Mus musculus, UniProt O88693); assay: Expression level of ganglioside GM3 in isolated T cells after in vitro PPMP treatment (flow cytometer); format: cell-based; conditions: isolated mouse spleen T cells, PPMP 0, 1, 5 and 10 μM for 24 hours
T1 construct: endogenous in cells; host or cells: primary T cells isolated from mouse spleen
T1 sequence (O88693 1-394): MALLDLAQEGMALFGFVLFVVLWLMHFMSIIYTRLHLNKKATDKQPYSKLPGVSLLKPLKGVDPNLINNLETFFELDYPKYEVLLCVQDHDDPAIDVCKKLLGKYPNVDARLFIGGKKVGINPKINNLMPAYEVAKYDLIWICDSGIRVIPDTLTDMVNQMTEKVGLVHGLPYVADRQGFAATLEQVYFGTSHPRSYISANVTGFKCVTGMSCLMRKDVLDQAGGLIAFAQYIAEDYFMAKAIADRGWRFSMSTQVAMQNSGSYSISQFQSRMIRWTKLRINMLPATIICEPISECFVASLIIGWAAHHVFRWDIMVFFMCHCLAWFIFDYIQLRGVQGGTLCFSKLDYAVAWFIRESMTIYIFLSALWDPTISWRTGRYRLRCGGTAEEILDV
Procedure: (§1) The isolated T cells were treated with PPMP in concentrations of 0, 1, 5 and 10 μM for 24 hours, and then measuring the expression level of GM3 (left view) and the proliferation rate of the cells (right view).
(§2) Using Dynabeads Untouched Mouse T Cells kit (Thermo fisher Scientific), T cells were isolated from the excised spleen, and the T cells were then activated by IL-2 (30 U/mL) and Dynabeads Mouse T-Cell activator CD3-CD28 (Thermo fisher Scientific). Thereafter, the T cells were recovered over time, and the expression of a PD-1 gene was then analyzed by qPCR. With regard to the proliferation rate of the T cells after the activation, the proliferation rate was increased in the cells derived from the T cell-specific UGCG gene-deficient mice (FIG. 7A).
(§3) The T cells were isolated in the same manner as that of the above 3, and the isolated T cells were then treated with PPMP used as a UGCG inhibitor in various concentrations for 24 hours. Thereafter, the expression level of ganglioside GM3 was analyzed using a flow cytometer. […] Moreover, in order to examine the toxicity of the PPMP treatment on T cells, the proliferation rate of the T cells was measured using a cell proliferation/cytotoxicity assay kit (CK-1, Dojindo).

T cells = assay: Proliferation rate / toxicity of PPMP treatment on T cells (cell proliferation/cytotoxicity assay kit CK-1, Dojindo); format: cell-based, mouse; conditions: isolated T cells
Procedure: as §1, §2, §3

neuroblastoma cell line = conditions: combination with fenretinide; cited from earlier work
[1] = system: acute leukemia-derived cell line ALL; conditions: combination with fenretinide; cited from earlier work

SMILES: CCCCCCCCCCCCCCCC(=O)NC(CN1CCOCC1)C(O)c1ccccc1 (centres unmarked) [PPMP, 1-phenyl-2-hexadecanoylamino-3-morpholino-1-propanol]
- expression level of ganglioside GM3 (UGCG): reduced in a PPMP concentration-dependent manner
- proliferation rate of the T cells (T cells; PPMP 0, 1, 5 and 10 μM for 24 hours, concentration range of reducing glycolipids): did not influence on the proliferation rate
- toxicity of PPMP on the cells (T cells; PPMP treatment for 24 hours): low
- effect on cytotoxicity of fenretinide (4-HPR) (neuroblastoma cell line): synergistically enhances the cytotoxicity
- effect on cytotoxicity of fenretinide (4-HPR) [1]: synergistically enhances the cytotoxicity
